Patent publication US10821195B2, “Compositions for therapeutics, targeted PET imaging and methods of their use” (Memorial Sloan Kettering Cancer Center, priority 2015, dated 2020)
Values joined by “and” are separate entries in the source; they are usually repeats but may differ in a detail not shown here. Identical values can stand only once.

Experiments:
[1] = EDTA transchelation challenge of ^89Zr complexes; format: physicochemical; conditions: 50-fold excess of EDTA, 37° C., various pHs, 7 days
Source text: (§1) In contrast, ^89Zr-HOPO is shown to be approximately impervious to the EDTA. […] This represents a significant improvement in the stability of the Zr-ligand complex at lower pH. […] Initially activity is seen in the bladder, gall bladder, and intestines.

[2] = Stability of ^89Zr complexes in human serum at 37° C. for 7 d (ITLC, SEC); conditions: bare ligand complexes, one week
Protocol: Seven day old samples of the Zr-ligand complexes were run down a size exclusion column to differentiate protein and ligand.
Serum stability and immunoreactivity of ^89Zr-complexes were evaluated. To determine the stability in serum, ^89Zr-complexes were incubated in human serum at 37° C. for 7 d. The percentage of intact species was monitored by ITLC (Table 9).
^89Zr-ligand and ^89Zr-ligand-antibody complexes were prepared according to the radiolabeling protocol as described above. For each ^89Zr complex, samples were made consisting of 900 μL human serum and 100 μL of the ^89Zr species and were placed in a heat block at 37° C. with agitation. Samples were monitored using radio-TLC before being added to the serum and then after 1 week of incubation. The stability of the complexes was measured as the percentage of ^89Zr that was retained at the origin of the ITLC strip and therefore still intact.

[3] = FIG. 2
Source text: Table printed on a drawing sheet, FIG. 2
as §1
First reader's note: Cell hatching encodes the percent-intact class given in the legend; the values show stability of the radiometal-chelator complexes against EDTA transchelation.

[4] = Partition coefficients of ^89Zr complexes at pH 7.4; format: physicochemical
Source text: Without having to be bound to any theory, the difference in clearance pathways between the two complexes is the difference in their partitions coefficients.

[5] = Biodistribution and clearance of ^89Zr-HOPO and ^89Zr-DFO in healthy mice; format: in vivo, healthy athymic nude mice; parameters: biodistribution Spleen / biodistribution Stomach / biodistribution Large Intestine / biodistribution Small Intestine / biodistribution Kidney / biodistribution Bladder / biodistribution Muscle / biodistribution Bone / biodistribution Tail / biodistribution Blood / biodistribution Heart / biodistribution Lung / biodistribution Gall Bladder / biodistribution Liver: unit not given here
Source text: Significant uptake of ^89Zr-HOPO occurs in the gall bladder and intestines as well as the kidney. […] As ^89Zr-DFO is cleared exclusively through the kidneys and not through the hepatobiliary system, it is excreted from the body faster than ^89Zr-HOPO, as evidenced by the blood clearance curve (FIG. 10). While not wishing to be bound to theory, upon conjugation to an antibody, the pharmacokinetics of a ^89Zr-HOPO complex comprising ^89Zr-HOPO and an antibody can be superseded by those of the biomacromolecule, meaning that a difference in clearance pathways between ^89Zr-HOPO and ^89Zr-DFO should not be a concern. However, over the short circulation time of the Zr-ligand complexes, neither DFO nor HOPO show any signs of instability or bone accumulation.

Compound: O=C1NCCCN2CCCCN3CCCNC(=O)c4cccc(=O)n4[O][89Zr]([O]n4c1cccc4=O)([O]n1c(cccc1=O)C2=O)[O]n1c(cccc1=O)C3=O [^89Zr-HOPO]
- stability to transchelation by EDTA [1]: remains intact for the full 7 days
- stability in human serum (ITLC and SEC) [2]: stable in serum over 7 days
- % INTACT STARTING SPECIES BY INCUBATION TIME | 1 h [3]: 99.8±0.4% and 99.3±1.3% and 99.0±1.8%
- % INTACT STARTING SPECIES BY INCUBATION TIME | 7 d [3]: 99.6±0.7% and 99.2±1.5%
- % INTACT STARTING SPECIES BY INCUBATION TIME | INITIAL [3]: 99.7±0.6% and 99.5±0.9%
- partition coefficient (lipophilicity) [4]: more lipophilic than ^89Zr-DFO
- biodistribution Bladder ([5]; 10 min): 2.04 ± 1.06
- biodistribution Blood ([5]; 10 min): 3.24 ± 0.66
- biodistribution Bone ([5]; 10 min): 1.04 ± 0.44
- biodistribution Gall Bladder ([5]; 10 min): 6.61 ± 2.87
- biodistribution Heart ([5]; 10 min): 1.57 ± 0.22
- biodistribution Kidney ([5]; 10 min): 9.46 ± 2.71
- biodistribution Large Intestine ([5]; 10 min): 0.26 ± 0.15
- biodistribution Liver ([5]; 10 min): 3.29 ± 0.75
- biodistribution Lung ([5]; 10 min): 1.07 ± 0.17
- biodistribution Muscle ([5]; 10 min): 0.36 ± 0.06
- biodistribution Small Intestine ([5]; 10 min): 5.99 ± 1.18
- biodistribution Spleen ([5]; 10 min): 0.31 ± 0.04
- biodistribution Stomach ([5]; 10 min): 1.22 ± 0.39
- biodistribution Tail ([5]; 10 min): 4.25 ± 1.46
- Blood/Bone ratio ([5]; 1 h): 0.6 ± 0.4
- Muscle/Bone ratio ([5]; 1 h): 0.34 ± 0.15
- biodistribution Bladder ([5]; 1 h): 0.73 ± 0.36
- biodistribution Blood ([5]; 1 h): 0.17 ± 0.10
- biodistribution Bone ([5]; 1 h): 0.29 ± 0.09
- biodistribution Gall Bladder ([5]; 1 h): 6.94 ± 3.38
- biodistribution Heart ([5]; 1 h): 0.12 ± 0.06
- biodistribution Kidney ([5]; 1 h): 1.05 ± 0.51
- biodistribution Large Intestine ([5]; 1 h): 0.09 ± 0.06
- biodistribution Liver ([5]; 1 h): 0.22 ± 0.09
- biodistribution Lung ([5]; 1 h): 0.17 ± 0.09
- biodistribution Muscle ([5]; 1 h): 0.10 ± 0.03
- biodistribution Small Intestine ([5]; 1 h): 1.11 ± 0.35
- biodistribution Spleen ([5]; 1 h): 0.09 ± 0.03
- biodistribution Stomach ([5]; 1 h): 0.30 ± 0.15
- biodistribution Tail ([5]; 1 h): 0.81 ± 0.34
- Blood/Bone ratio ([5]; 4 h): 0.2 ± 0.2
- Muscle/Bone ratio ([5]; 4 h): 0.4 ± 0.3
- biodistribution Bladder ([5]; 4 h): 0.58 ± 0.27
- biodistribution Blood ([5]; 4 h): 0.05 ± 0.04
- biodistribution Bone ([5]; 4 h): 0.23 ± 0.12
- biodistribution Gall Bladder ([5]; 4 h): 1.00 ± 0.41
- biodistribution Heart ([5]; 4 h): 0.06 ± 0.01
- biodistribution Kidney ([5]; 4 h): 0.40 ± 0.14
- biodistribution Large Intestine ([5]; 4 h): 7.17 ± 2.15
- biodistribution Liver ([5]; 4 h): 0.13 ± 0.01
- biodistribution Lung ([5]; 4 h): 0.08 ± 0.01
- biodistribution Muscle ([5]; 4 h): 0.09 ± 0.06
- biodistribution Small Intestine ([5]; 4 h): 0.12 ± 0.13
- biodistribution Spleen ([5]; 4 h): 0.06 ± 0.01
- biodistribution Stomach ([5]; 4 h): 0.50 ± 0.74
- biodistribution Tail ([5]; 4 h): 0.29 ± 0.18
- biodistribution Bladder ([5]; 12 h): 0.54 ± 0.26
- biodistribution Blood ([5]; 12 h): 0.02 ± 0.00
- biodistribution Bone ([5]; 12 h): 0.25 ± 0.07
- biodistribution Gall Bladder ([5]; 12 h): 2.45 ± 1.02
- biodistribution Heart ([5]; 12 h): 0.06 ± 0.01
- biodistribution Kidney ([5]; 12 h): 0.53 ± 0.23
- biodistribution Large Intestine ([5]; 12 h): 0.10 ± 0.03
- biodistribution Liver ([5]; 12 h): 0.09 ± 0.02
- biodistribution Lung ([5]; 12 h): 0.06 ± 0.01
- biodistribution Muscle ([5]; 12 h): 0.06 ± 0.01
- biodistribution Small Intestine ([5]; 12 h): 0.02 ± 0.01
- biodistribution Spleen ([5]; 12 h): 0.05 ± 0.01
- biodistribution Stomach ([5]; 12 h): 0.01 ± 0.00
- biodistribution Tail ([5]; 12 h): 0.11 ± 0.04
- Blood/Bone ratio ([5]; 1 d): 0.12 ± 0.02
- Muscle/Bone ratio ([5]; 1 d): 0.35 ± 0.09
- biodistribution Bladder ([5]; 24 h): 0.28 ± 0.14
- biodistribution Blood ([5]; 24 h): 0.02 ± 0.00
- biodistribution Bone ([5]; 24 h): 0.17 ± 0.03
- biodistribution Gall Bladder ([5]; 24 h): 1.15 ± 0.59
- biodistribution Heart ([5]; 24 h): 0.07 ± 0.01
- biodistribution Kidney ([5]; 24 h): 0.51 ± 0.29
- biodistribution Large Intestine ([5]; 24 h): 0.03 ± 0.02
- biodistribution Liver ([5]; 24 h): 0.06 ± 0.03
- biodistribution Lung ([5]; 24 h): 0.06 ± 0.05
- biodistribution Muscle ([5]; 24 h): 0.06 ± 0.01
- biodistribution Small Intestine ([5]; 24 h): 0.02 ± 0.00
- biodistribution Spleen ([5]; 24 h): 0.06 ± 0.01
- biodistribution Stomach ([5]; 24 h): 0.02 ± 0.00
- biodistribution Tail ([5]; 24 h): 0.05 ± 0.01
- Blood/Bone ratio ([5]; […]): 3.1 ± 1.5
- Muscle/Bone ratio ([5]; […]): 0.35 ± 0.16
- clearance route ([5]; healthy mice): cleared through both renal and hepatobiliary excretion
